Data reported in BindingDB's records for doi:10.7270/Q2FT8P6X (n/a, 1994).

Target: Leukotriene B4 receptor (Cavia porcellus)
Test: Negative logarithm of affinity for leukotriene B4 (LTB4) receptor on guinea pig lung membranes

Row | Ki [nM] | Structure (SMILES)
1 | 63 | CCc1cc(-c2ccc(N(C)C)cc2)c(O)cc1OCCCCCC(C)(C)c1nn[nH]n1
2 | 66 | CCc1cc(-c2cccc(C(F)(F)F)c2)c(O)cc1OCCCCCC(C)(C)c1nn[nH]n1
